Reference: patent US20260034119A1, “5-METHOXY-N,N-[…][…], THEIR […], AND METHODS FOR TREATMENT OF NEUROLOGICAL, […], AND SUBSTANCE USE DISORDERS” (priority 2023, published 2026)
“Also recorded” adds a separate entry of the source.

Assays:
SERT = biological target: T1, SERT (Homo sapiens, UniProt P31645); assay: Serotonin transporter (SERT) uptake inhibition; format: cell-based; conditions: compared with 5-HT1A
T1 construct: expressed in transfected cells; host or cells: HEK293-T
Experimental: The uptake inhibition assay was performed the following day. […] To each well, 30 μl of HBSS containing 20 mM HEPES, 0.1% BSA, and 0.01% ascorbic acid and 15 μl of 3× drug dilutions were added. Cells were then incubated at 37° C. for 45 min. A final concentration of 10 μM FFN246 (Aobious) (Henke et al. 2018) was added to each well, and cells were incubated for an additional hour at 37° C. […] Data was plotted as a function of drug concentration, normalized to % citalopram inhibition, and analyzed using “log(inhibitor) vs. response” in GraphPad Prism 8.0.

OCT1 = biological target: T2, OCT1 (Homo sapiens, UniProt O15245); assay: OCT1 uptake inhibition; format: cell-based; conditions: compared with 5-HT1A
T2 construct: expressed in transfected cells; host or cells: Flp-In T-Rex cell line (ThermoFisher), tetracycline-induced
T2 sequence (O15245 1-554): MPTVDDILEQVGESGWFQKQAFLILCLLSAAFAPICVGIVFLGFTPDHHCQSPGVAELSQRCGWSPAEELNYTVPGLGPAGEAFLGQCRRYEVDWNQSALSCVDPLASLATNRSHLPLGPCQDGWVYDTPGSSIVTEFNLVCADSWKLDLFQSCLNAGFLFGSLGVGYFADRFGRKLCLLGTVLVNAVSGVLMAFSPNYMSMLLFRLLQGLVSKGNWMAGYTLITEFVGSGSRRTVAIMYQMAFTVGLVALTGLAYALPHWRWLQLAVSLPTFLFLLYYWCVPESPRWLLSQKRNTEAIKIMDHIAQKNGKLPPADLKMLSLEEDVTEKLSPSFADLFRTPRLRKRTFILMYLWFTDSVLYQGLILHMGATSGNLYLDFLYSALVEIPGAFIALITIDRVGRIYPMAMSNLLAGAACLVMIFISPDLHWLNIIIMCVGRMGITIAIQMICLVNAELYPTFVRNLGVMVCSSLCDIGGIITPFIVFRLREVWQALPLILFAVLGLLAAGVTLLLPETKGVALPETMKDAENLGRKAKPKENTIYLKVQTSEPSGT
Experimental: (§1) Inducible cell lines stably expressing OCT1, OCT2, or PMAT were generated using the Flp-In T-Rex cell line (ThermoFisher) according to manufacturer recommendations. Cells were maintained in DMEM supplemented with 10% FBS, 100 μg/ml hygromycin B (GoldBio), and 10 μg/ml blasticidin (GoldBio). To measure uptake inhibition, cells were seeded into poly-L-lysine coated clear-bottom 384-well plates at a density of 25,000 cells per well in DMEM containing 10% FBS and 2 μg/ml of tetracycline (Sigma) to induce transporter expression. […] Cells were incubated with drug for 30 min at 37° C. Fluorescent substrate was then added to the cells. […] Cells were incubated with respective substrates for an hour at 37° C. OCT2 cells were read directly in a Victor NIVO plate reader using 495 nm excitation and 580 emission filter for 0.1 s. OCT1 and PMAT cells were washed in HBSS supplemented with 20 mM HEPES pH 7.4 before reading in a Victor NIVO plate reader using 435 nm excitation and 480 nm emission filter for 0.1 s.

PMAT = biological target: T3, PMAT (Homo sapiens, UniProt Q7RTT9); assay: PMAT uptake inhibition; format: cell-based; conditions: compared with 5-HT1A
T3 construct: expressed in transfected cells; host or cells: Flp-In T-Rex cell line (ThermoFisher), tetracycline-induced
T3 sequence (Q7RTT9 1-530): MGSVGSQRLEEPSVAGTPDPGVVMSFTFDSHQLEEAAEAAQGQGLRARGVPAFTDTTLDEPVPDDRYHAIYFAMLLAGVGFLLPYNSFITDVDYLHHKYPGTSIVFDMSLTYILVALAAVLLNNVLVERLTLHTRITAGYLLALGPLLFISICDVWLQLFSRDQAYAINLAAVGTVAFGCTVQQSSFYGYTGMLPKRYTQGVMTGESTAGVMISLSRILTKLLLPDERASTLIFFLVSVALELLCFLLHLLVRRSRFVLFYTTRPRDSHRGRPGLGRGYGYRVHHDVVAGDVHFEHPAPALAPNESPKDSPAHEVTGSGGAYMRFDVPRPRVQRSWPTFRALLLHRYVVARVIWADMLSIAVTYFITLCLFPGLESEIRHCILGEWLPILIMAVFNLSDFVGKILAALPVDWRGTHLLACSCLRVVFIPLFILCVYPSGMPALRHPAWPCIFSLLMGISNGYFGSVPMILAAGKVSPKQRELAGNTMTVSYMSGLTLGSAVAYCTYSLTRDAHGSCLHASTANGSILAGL
Experimental: as §1

human 5-HT1A = biological target: T4, human 5-HT1A (Homo sapiens, UniProt P08908); assay: 5-HT1A-mediated cAMP reduction assay (GloSensor, HEK293-T); conditions: cAMP, 5-HT1A WT
T4 sequence (P08908 1-422): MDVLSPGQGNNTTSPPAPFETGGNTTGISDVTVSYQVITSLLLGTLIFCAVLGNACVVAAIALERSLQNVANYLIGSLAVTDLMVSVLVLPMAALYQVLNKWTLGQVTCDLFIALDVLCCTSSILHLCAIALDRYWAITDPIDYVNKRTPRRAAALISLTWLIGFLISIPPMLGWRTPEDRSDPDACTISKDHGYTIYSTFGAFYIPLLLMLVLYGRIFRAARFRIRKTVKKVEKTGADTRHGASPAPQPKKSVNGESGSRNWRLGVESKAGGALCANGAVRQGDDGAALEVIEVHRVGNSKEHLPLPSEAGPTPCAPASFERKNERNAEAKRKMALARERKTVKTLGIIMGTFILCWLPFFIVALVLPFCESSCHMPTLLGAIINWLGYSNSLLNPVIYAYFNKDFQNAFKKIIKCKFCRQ

C57BL/6J mice = assay: Head twitch response (HTR); format: in vivo, mouse; conditions: s.c., presence or absence of 5-HT1A antagonist WAY-100635
Experimental: The head-twitch response evaluation was performed by trained observers who were blinded to both drug and dose. Mice were habituated to the testing room 30 min. The body weight of each mouse was recorded. The HTR was defined as a rapid rotational movement of the head around the longitudinal axis of the animals' body. Mice were administered with vehicle or WAY100,635 (1 mg/kg or 2 mg/kg, sc). Fifteen minutes after the pretreatment injection mice were administered either 4F, 5-MeO-MET (0.1, 0.3, 1 or 3 mg/kg, sc) or 5-MeO-MET (0.3, 1, 3, and 10 mg/kg, sc) and placed in a novel observation cage. An overhead camera (GoPro HERO9 at a 120 Hz, San Mateo, CA, US) recorded their movements. Observers scored HTR from recorded footage for the first 10-min period.

T1 sequence (P31645 whole entry, species assumed): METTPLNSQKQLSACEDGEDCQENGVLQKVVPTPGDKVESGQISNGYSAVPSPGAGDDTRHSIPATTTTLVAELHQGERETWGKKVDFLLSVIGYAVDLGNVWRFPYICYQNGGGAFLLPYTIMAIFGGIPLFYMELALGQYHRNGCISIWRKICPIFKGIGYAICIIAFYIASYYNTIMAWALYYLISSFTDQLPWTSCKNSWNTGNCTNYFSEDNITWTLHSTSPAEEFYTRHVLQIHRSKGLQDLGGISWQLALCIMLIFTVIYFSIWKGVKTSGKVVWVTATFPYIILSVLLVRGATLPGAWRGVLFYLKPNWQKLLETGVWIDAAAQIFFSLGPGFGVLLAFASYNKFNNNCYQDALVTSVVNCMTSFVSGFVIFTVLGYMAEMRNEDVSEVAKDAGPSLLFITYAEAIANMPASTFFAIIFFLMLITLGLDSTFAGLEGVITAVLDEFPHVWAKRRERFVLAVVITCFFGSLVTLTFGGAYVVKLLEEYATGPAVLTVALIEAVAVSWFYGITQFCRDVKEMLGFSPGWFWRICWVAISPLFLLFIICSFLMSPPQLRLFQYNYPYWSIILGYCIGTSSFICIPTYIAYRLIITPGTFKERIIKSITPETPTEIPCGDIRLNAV

For `COc1ccc2[nH]cc(CCN3CCCC3)c2c1F` [4-F, 5-MeO-PyrT, 4-Fluoro, 5-methoxypyrrolidinyl-tryptamine], the “activity at the serotonin transporter” value (SERT) was “substantially lower activity”, the “activity at other neurotransmitter transporters (OCT1)” value (OCT1) was “substantially lower activity” and the “activity at other neurotransmitter transporters (PMAT)” value (PMAT) was “substantially lower activity”. The EC50 (human 5-HT1A) was 0.03 nM, the pEC50 (human 5-HT1A) was 10.5 and the “head-twitch response (HTR), measure of 5-HT2A-mediated hallucinogenic activity” value (C57BL/6J mice) was “no preclinical signs of hallucinogenic effects; also recorded: did not produce notable HTR”.
